Experimental data taken from ChEMBL document CHEMBL1275543, “Proposed MIC and disk diffusion microbiological cutoffs and spectrum of activity of retapamulin, a novel topical antimicrobial agent” (2008).
≈ marks a conversion by molar mass, not a printed value.

How the values were obtained:
Assay type in all cases: functional
Staphylococcus [1] = assay: Antibacterial activity against methicillin resistant coagulase-negative Staphylococcus
Staphylococcus [2] = assay: Antibacterial activity against methicillin sensitive coagulase-negative Staphylococcus
Staphylococcus aureus [3] = assay: Antibacterial activity against methicillin resistant Staphylococcus aureus
Staphylococcus aureus [4] = assay: Antibacterial activity against methicillin sensitive Staphylococcus aureus
Staphylococcus aureus [5] = assay: Antibacterial activity against vancomycin intermediate Staphylococcus aureus
[6] = Antibacterial activity against beta-hemolytic Streptococcus group C; conditions: Streptococcus sp. 'group C'
[7] = Antibacterial activity against beta-hemolytic Streptococcus group G; conditions: Streptococcus sp. 'group G'
Streptococcus agalactiae = assay: Antibacterial activity against Streptococcus agalactiae
Streptococcus pyogenes [8] = assay: Antibacterial activity against Streptococcus pyogenes
Streptococcus viridans = assay: Antibacterial activity against Streptococcus viridans
Staphylococcus aureus [9] = assay: Antibacterial activity against Staphylococcus aureus
Streptococcus pyogenes [10] = assay: Ratio of MBC90 to MIC90 for Streptococcus pyogenes
Staphylococcus [11] = assay: Ratio of MBC90 to MIC90 for coagulase-negative Staphylococcus
Staphylococcus aureus [12] = assay: Ratio of MBC90 to MIC90 for Staphylococcus aureus
[13] = Antibacterial activity against gram-negative Bacilli species
Enterococcus = assay: Antibacterial activity against Enterococcus species
Staphylococcus [14] = assay: Antibacterial activity against coagulase-negative Staphylococcus

SMILES | MIC50 (Staphylococcus [1]) | MIC90 (Staphylococcus [1]) | MIC50 (Staphylococcus [2]) | MIC90 (Staphylococcus [2]) | MIC50 (Staphylococcus aureus [3]) | MIC90 (Staphylococcus aureus [3]) | MIC50 (Staphylococcus aureus [4]) | MIC90 (Staphylococcus aureus [4]) | MIC50 (Staphylococcus aureus [5]) | MIC90 (Staphylococcus aureus [5]) | MIC50 [6] | MIC90 [6] | MIC50 [7] | MIC90 [7] | MIC50 (Streptococcus agalactiae) | MIC90 (Streptococcus agalactiae) | MIC50 (Streptococcus pyogenes [8]; Streptococcus pyogenes) | MIC90 (Streptococcus pyogenes [8]; Streptococcus pyogenes) | MIC50 (Streptococcus viridans) | MIC90 (Streptococcus viridans) | also measured
C=C[C@]1(C)C[C@@H](OC(=O)CS[C@@H]2C[C@H]3CC[C@@H](C2)N3C)[C@]2(C)[C@H](C)CC[C@]3(CCC(=O)[C@H]32)[C@@H](C)[C@@H]1O [RETAPAMULIN] | 0.06 µg/mL (≈ 0.116 µM) | 0.12 µg/mL (≈ 0.232 µM) | 0.12 µg/mL (≈ 0.232 µM) | 4 µg/mL (≈ 7.73 µM) | 0.12 µg/mL (≈ 0.232 µM) | 0.12 µg/mL (≈ 0.232 µM) | 0.12 µg/mL (≈ 0.232 µM) | 0.12 µg/mL (≈ 0.232 µM) | 0.06 µg/mL (≈ 0.116 µM) | 0.12 µg/mL (≈ 0.232 µM) | 0.016 µg/mL (≈ 0.0309 µM) | 0.03 µg/mL (≈ 0.0579 µM) | 0.03 µg/mL (≈ 0.0579 µM) | 0.06 µg/mL (≈ 0.116 µM) | 0.03 µg/mL (≈ 0.0579 µM) | 0.03 µg/mL (≈ 0.0579 µM) | 0.016 µg/mL (≈ 0.0309 µM) | 0.03 µg/mL (≈ 0.0579 µM) | 0.06 µg/mL (≈ 0.116 µM) | 0.25 µg/mL (≈ 0.483 µM) | MIC [6]: 0.016 µg/mL (≈ 0.0309 µM); Activity (Streptococcus pyogenes [8]): 16 µg/mL; MIC (Streptococcus pyogenes [8]; Streptococcus pyogenes): 0.016 µg/mL (≈ 0.0309 µM); Activity (Staphylococcus aureus [9]): 128 µg/mL; Ratio (Streptococcus pyogenes [10]): 256; Ratio (Staphylococcus [11]): 512; Ratio (Staphylococcus aureus [12]): 1024; MIC50 [13]: 256 µg/mL (≈ 494 µM); MIC90 [13]: > 512 µg/mL; MIC50 (Enterococcus): 64 µg/mL (≈ 124 µM); MIC90 (Enterococcus): 128 µg/mL (≈ 247 µM); MBC (Staphylococcus [14]): 64 µg/mL (≈ 124 µM)
C/C(=C\C(=O)OCCCCCCCCC(=O)O)C[C@@H]1OC[C@H](C[C@@H]2O[C@H]2[C@@H](C)[C@H](C)O)[C@@H](O)[C@H]1O [MUPIROCIN] | 0.25 µg/mL (≈ 0.499 µM) | > 32 µg/mL | 0.25 µg/mL (≈ 0.499 µM) | 32 µg/mL (≈ 63.9 µM) | 0.25 µg/mL (≈ 0.499 µM) | 2 µg/mL (≈ 3.99 µM) | 0.25 µg/mL (≈ 0.499 µM) | 0.5 µg/mL (≈ 0.999 µM) | 0.25 µg/mL (≈ 0.499 µM) | 1 µg/mL (≈ 2 µM) | 0.5 µg/mL (≈ 0.999 µM) | 1 µg/mL (≈ 2 µM) | 0.25 µg/mL (≈ 0.499 µM) | 0.5 µg/mL (≈ 0.999 µM) | 1 µg/mL (≈ 2 µM) | 2 µg/mL (≈ 3.99 µM) | 0.12 µg/mL (≈ 0.24 µM) | 0.25 µg/mL (≈ 0.499 µM) | 1 µg/mL (≈ 2 µM) | 2 µg/mL (≈ 3.99 µM) | MIC50 [13]: > 32 µg/mL; MIC90 [13]: > 32 µg/mL; MIC50 (Enterococcus): 32 µg/mL (≈ 63.9 µM); MIC90 (Enterococcus): > 32 µg/mL
